SMILES strings stand for the structures.

Consider 27 compounds from patent US7585859B2, “PDE4B inhibitors and uses therefor” (Plexxikon, Inc., priority 2004, dated 2009).

Test [1] addresses T1, PDE4D (Homo sapiens, UniProt Q08499).
T1 construct: PDE4D: The catalytic domain of human PDE4B from S3 16-V692; His6 (N); thrombin cleavage site (N); made in house; host or cells: E. coli
The experiment in a line: PDE4 IC50 determination by Scintillation Proximity Assay, PDE4D. As to conditions: Table 1B, Formula I compounds; read-out: IC50 PDE4D. In kind it is biochemical. How it is done:
(§1) IC50s were determined by Scintillation Proximity Assay (SPA). The principle of the assay is based on the fact that cAMP, the PDE4 substrate, binds weakly to Yittrium Silicate SPA beads, whereas AMP, the product of PDE4 hydrolysis binds strongly. Thus, the extent of PDE4 hydrolysis of a sample of [^3H]cAMP can be measured because only the
(§2) [^3H]AMP produced by PDE4 hydrolysis will bind to the SPA beads and produce a scintillation signal.
(§3) PDE4 enzymes used for IC50 assays were:
(§4) Enzyme was stored in 50% glycerol at −20°.
(§5) In addition to the compound dilutions, each assay plate contained control wells with 1 μl of DMSO (to define 0% enzyme inhibition) or 1 μl of 200 μM roflumilast (to define 100% enzyme inhibition). […] Next, 10 μl of PDE4 enzyme in assay buffer was added and the plates were shaken for 30 s. at 1000 rpm to start the cAMP hydrolysis reaction. The concentrations of enzyme used were: PDE4B, 80 ng/ml; PDE4D, 4 ng/ml; PDE4B2, 2.5 μl of 50% glycerol stock/ml; PDE4D5 0.083 μl of 50% glycerol stock/ml. Assay plates were covered and incubated for 30 min. at 30°. […] The assay plates were covered with clear plastic film, centrifuged for 1 min. at 1000 RPM to settle the SPA beads, and counted using a Wallac TriLux scintillation counter. IC50's were calculated from the raw assay data by non-linear regression curve fitting using the Assay Explorer software package from MDL.

The target of test [2] is T2, PDE4B: The catalytic domain of human PDE4B from S152-S528 (Homo sapiens, UniProt Q07343).
T2 construct: His6 (N); thrombin cleavage site (N); made in house; host or cells: E. coli
As to the kind of experiment: PDE4 IC50 determination by Scintillation Proximity Assay, PDE4B. Type of test: biochemical. As to conditions: Table 1B, Formula I compounds; read-out: IC50 PDE4B. The procedure:
as §1, §2, §3, §4, §5

T1 sequence (Q08499 380-756): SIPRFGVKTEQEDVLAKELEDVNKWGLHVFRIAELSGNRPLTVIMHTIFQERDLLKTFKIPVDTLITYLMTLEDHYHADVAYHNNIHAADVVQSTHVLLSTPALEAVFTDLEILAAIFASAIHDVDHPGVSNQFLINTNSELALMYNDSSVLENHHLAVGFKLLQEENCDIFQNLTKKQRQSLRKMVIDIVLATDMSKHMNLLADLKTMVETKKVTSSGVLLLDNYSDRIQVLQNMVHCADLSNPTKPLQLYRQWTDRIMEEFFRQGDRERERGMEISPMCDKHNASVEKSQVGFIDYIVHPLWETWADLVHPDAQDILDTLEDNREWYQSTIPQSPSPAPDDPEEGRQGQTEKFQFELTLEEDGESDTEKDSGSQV
T2 sequence (Q07343 with tags, fused parts or gaps): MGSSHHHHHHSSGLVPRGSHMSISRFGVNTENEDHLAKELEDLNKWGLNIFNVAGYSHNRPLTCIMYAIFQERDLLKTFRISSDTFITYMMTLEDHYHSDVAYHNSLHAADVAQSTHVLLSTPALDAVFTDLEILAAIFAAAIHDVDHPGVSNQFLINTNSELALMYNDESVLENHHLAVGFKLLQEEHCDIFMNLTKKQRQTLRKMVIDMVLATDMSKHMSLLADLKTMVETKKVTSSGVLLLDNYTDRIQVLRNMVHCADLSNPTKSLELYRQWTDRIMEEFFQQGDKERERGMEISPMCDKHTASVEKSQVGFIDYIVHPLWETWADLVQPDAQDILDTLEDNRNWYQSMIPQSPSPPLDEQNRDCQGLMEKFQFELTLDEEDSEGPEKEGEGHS

For `COC(=O)C(CCSC)Nc1sc(C(=O)c2ccccn2)c(N)c1C#N` (stereo not drawn) [Compound 1-65, 2-[4-Amino-3-cyano-5-(pyridine-2-carbonyl)-thiophen-2ylamino]-4-methylsulfanyl-butyric acid methyl ester], the IC50 in test [1] and in test [2] was above 10 µM each time.

Turning to `N#Cc1c(NCCN2CCCCC2)sc(C(=O)c2ccc(-c3ccccn3)s2)c1N` [Compound 1-70, 4-Amino-2-(2-piperidin-1-yl-ethylamino)-5-(5-pyridin-2-yl-thiophene-2-carbonyl)-thiophene-3-carbonitrile], the IC50 in test [1] and in test [2] was below 10 µM each time.

Take `COC(=O)C(CC(C)C)Nc1sc(C(=O)c2ccc(-c3ccccn3)s2)c(N)c1C#N` (stereo not drawn) [Compound 1-72, 2-[4-Amino-3-cyano-5-(5-pyridin-2-yl-thiophene-2-carbonyl)-thiophen-2-ylamino]-4-methyl-pentanoic acid methyl ester]: the IC50 in test [1] and in test [2] was below 10 µM throughout.

For the compound `COC(=O)c1ccccc1Nc1sc(C(=O)c2ccc(-c3ccccn3)s2)c(N)c1C#N` [Compound 1-73, 2-[4-Amino-3-cyano-5-(5-pyridin-2-yl-thiophene-2-carbonyl)-thiophen-2-ylamino]-benzoic acid methyl ester], the IC50 in test [1] and in test [2] was below 10 µM each time.

As to `N#Cc1c(Nc2ccc(Oc3ccccc3)cc2)sc(C(=O)c2ccc(-c3ccccn3)s2)c1N` [Compound 1-76, 4-Amino-2-(4-phenoxy-phenylamino)-5-(5-pyridin-2-yl-thiophene-2-carbonyl)-thiophene-3-carbonitrile], the IC50 was above 10 µM in test [1] and below 10 µM in test [2].

`N#Cc1c(NC2CCOC2=O)sc(C(=O)c2ccc(-c3ccccn3)s2)c1N` (stereo not drawn) [Compound 1-79, 4-Amino-2-(2-oxo-tetrahydro-furan-3-ylamino)-5-(5-pyridin-2-yl-thiophene-2-carbonyl)-thiophene-3-carbonitrile]: the IC50 in test [1] and in test [2] was below 10 µM throughout.

Regarding `N#Cc1c(NCC2CCCO2)sc(C(=O)c2ccc(-c3ccccn3)s2)c1N` (stereo not drawn) [Compound 1-80, 4-Amino-5-(5-pyridin-2-yl-thiophene-2-carbonyl)-2-[(tetrahydro-furan-2-ylmethyl)-amino]-thiophene-3-carbonitrile], the IC50 in test [1] and in test [2] was below 10 µM in each case.

`COC(=O)C(CC(C)C)Nc1sc(C(=O)c2cc(-c3ccc(Cl)c(Cl)c3)no2)c(N)c1C#N` (stereo not drawn) [Compound 1-84, 2-{4-Amino-3-cyano-5-[3-(3,4-dichloro-phenyl)-isoxazole-5-carbonyl]-thiophen-2-ylamino}-4-methyl-pentanoic acid methyl ester]: the IC50 in test [1] and in test [2] was above 10 µM each time.

With `COC(=O)C(CC(C)C)Nc1sc(C(=O)c2ccc(C)cc2C)c(N)c1C#N` (stereo not drawn) [Compound 1-87, 2-[4-Amino-3-cyano-5-(2,4-dimethyl-benzoyl)-thiophen-2-ylamino]-4-methyl-pentanoic acid methyl ester], the IC50 in test [1] and in test [2] was above 10 µM in each case.

For `COC(=O)C(CCSC)Nc1sc(C(=O)c2ccc(C)cc2C)c(N)c1C#N` (stereo not drawn) [Compound 1-88, 2-[4-Amino-3-cyano-5-(2,4-dimethyl-benzoyl)-thiophen-2-ylamino]-4-methylsulfanyl-butyric acid methyl ester], the IC50 in test [1] was above 10 µM; in test [2], below 10 µM.

In the case of `Cc1ccc(C(=O)c2sc(Nc3ccc(C(=O)NC4CCOC4=O)cc3)c(C#N)c2N)c(C)c1` (stereo not drawn) [Compound 1-89, 4-[4-Amino-3-cyano-5-(2,4-dimethyl-benzoyl)-thiophen-2-ylamino]-N-(2-oxo-tetrahydro-furan-3-yl)-benzamide], the IC50 in test [1] and in test [2] was below 10 µM each time.

In the case of `Cc1ccc(C(=O)c2sc(NC3CCOC3=O)c(C#N)c2N)c(C)c1` (stereo not drawn) [Compound 1-91, 4-Amino-5-(2,4-dimethyl-benzoyl)-2-(2-oxo-tetrahydro-furan-3-ylamino)-thiophene-3-carbonitrile], the IC50 in test [1] is above 10 µM; in test [2], below 10 µM.

For the compound `COc1ccc(OC)c(C(=O)c2sc(Nc3ccccc3F)c(C#N)c2N)c1` [Compound 1-92, 4-Amino-5-(2,5-dimethoxy-benzoyl)-2-(2-fluoro-phenylamino)-thiophene-3-carbonitrile], the IC50 in test [1] and in test [2] was below 10 µM in each case.

Turning to `COc1ccc(Nc2sc(C(=O)c3cc(OC)ccc3OC)c(N)c2C#N)cc1` [Compound 1-93, 4-Amino-5-(2,5-dimethoxy-benzoyl)-2-(4-methoxy-phenylamino)-thiophene-3-carbonitrile], the IC50 in test [1] and in test [2] was below 10 µM in each case.

For the compound `COc1ccc(OC)c(C(=O)c2sc(Nc3ccc4c(c3)CCC4)c(C#N)c2N)c1` [Compound 1-94, 4-Amino-5-(2,5-dimethoxy-benzoyl)-2-(indan-5-ylamino)-thiophene-3-carbonitrile], the IC50 in test [1] and in test [2] was below 10 µM in each case.

In the case of `COC(=O)C(CCSC)Nc1sc(C(=O)c2cc(OC)ccc2OC)c(N)c1C#N` (stereo not drawn) [Compound 1-95, 2-[4-Amino-3-cyano-5-(2,5-dimethoxy-benzoyl)-thiophen-2-ylamino]-4-methylsulfanyl-butyric acid methyl ester], the IC50 is above 10 µM in test [1] and below 10 µM in test [2].

`COc1ccc(OC)c(C(=O)c2sc(Nc3ccc(Oc4ccccc4)cc3)c(C#N)c2N)c1` [Compound 1-96, 4-Amino-5-(2,5-dimethoxy-benzoyl)-2-(4-phenoxy-phenylamino)-thiophene-3-carbonitrile]: the results for the IC50 in test [1] and in test [2] were above 10 µM and below 10 µM, respectively.

Regarding `COc1ccc(OC)c(C(=O)c2sc(Nc3ccc(C(=O)NC4CCOC4=O)cc3)c(C#N)c2N)c1` (stereo not drawn) [Compound 1-97, 4-[4-Amino-3-cyano-5-(2,5-dimethoxy-benzoyl)-thiophen-2-ylamino]-N-(2-oxo-tetrahydro-furan-3-yl)-benzamide], the values for the IC50 in test [1] and in test [2] were below 10 µM and above 10 µM, respectively.

With `COc1ccc(OC)c(C(=O)c2sc(NC3CCOC3=O)c(C#N)c2N)c1` (stereo not drawn) [Compound 1-98, 4-Amino-5-(2,5-dimethoxy-benzoyl)-2-(2-oxo-tetrahydro-furan-3-ylamino)-thiophene-3-carbonitrile], the IC50 in test [1] was above 10 µM; in test [2], below 10 µM.

In the case of `COc1ccc(C(=O)c2sc(Nc3ccccc3F)c(C#N)c2N)c(OC)c1` [Compound 1-100, 4-Amino-5-(2,4-dimethoxy-benzoyl)-2-(2-fluoro-phenylamino)-thiophene-3-carbonitrile], the IC50 in test [1] and in test [2] was below 10 µM each time.

As to `COc1ccc(Nc2sc(C(=O)c3ccc(OC)cc3OC)c(N)c2C#N)cc1` [Compound 1-101, 4-Amino-5-(2,4-dimethoxy-benzoyl)-2-(4-methoxy-phenylamino)-thiophene-3-carbonitrile], the IC50 in test [1] and in test [2] was below 10 µM each time.

Consider `COc1ccc(C(=O)c2sc(Nc3ccc4c(c3)CCC4)c(C#N)c2N)c(OC)c1` [Compound 1-102, 4-Amino-5-(2,4-dimethoxy-benzoyl)-2-(indan-5-ylamino)-thiophene-3-carbonitrile], for which the IC50 in test [1] and in test [2] was below 10 µM throughout.

For the compound `COc1ccc(C(=O)c2sc(Nc3ccc(C(=O)NC4CCOC4=O)cc3)c(C#N)c2N)c(OC)c1` (stereo not drawn) [Compound 1-103, 4-[4-Amino-3-cyano-5-(2,4-dimethoxy-benzoyl)-thiophen-2-ylamino]-N-(2-oxo-tetrahydro-furan-3-yl)-benzamide], the IC50 in test [1] and in test [2] was above 10 µM each time.

For `CCc1ccccc1Nc1sc(C(=O)c2ccc(OC)cc2OC)c(N)c1C#N` [Compound 1-104, 4-Amino-5-(2,4-dimethoxy-benzoyl)-2-(2-ethyl-phenylamino)-thiophene-3-carbonitrile], the IC50 in test [1] and in test [2] was below 10 µM throughout.

As to `COc1ccc(Nc2sc(C(=O)c3coc4ccccc34)c(N)c2C#N)cc1` [Compound 1-105, 4-Amino-5-(benzofuran-3-carbonyl)-2-(4-methoxy-phenylamino)-thiophene-3-carbonitrile], the IC50 in test [1] and in test [2] was below 10 µM in each case.

On to `COC(=O)C(CC(C)C)Nc1sc(C(=O)c2coc3ccccc23)c(N)c1C#N` (stereo not drawn) [Compound 1-106, 2-[4-Amino-5-(benzofuran-3-carbonyl)-3-cyano-thiophen-2-ylamino]-4-methyl-pentanoic acid methyl ester], for which the IC50 was above 10 µM in test [1] and below 10 µM in test [2].

On to `COC(=O)C(CCSC)Nc1sc(C(=O)c2coc3ccccc23)c(N)c1C#N` (stereo not drawn) [Compound 1-107, 2-[4-Amino-5-(benzofuran-3-carbonyl)-3-cyano-thiophen-2-ylamino]-4-methylsulfanyl-butyric acid methyl ester], for which the IC50 in test [1] and in test [2] was below 10 µM throughout.
